From US7807668B2, “Anti-inflammatory compounds” (New Zealand Institute for Crop & Food Research Limited, priority 2004, dated 2010)
Read-outs that look alike come from different tables or passages of the source.

Legend:
human neutrophils = assay: In vitro respiratory burst (superoxide) assay; type: cell-based; settings: Neutrophil, concentration required to reduce superoxide production to 50% of control, PMA-triggered respiratory burst, WST-1 dye reduction, compound 30 min before, read-out: Al50 (the source's name)
Procedure: Human neutrophils were isolated from anti-coagulated whole human blood using a Polymorphprep (density 1.13 g/mL, centrifuge 500×g, 40 min). Neutrophils were washed with PBS and plated out at 2×10^6 neutrophils per mL.
Neutrophils were treated with the compound (in DMSO) 30 minutes prior to addition of the detection dye WST-1 (5.5 mM). The respiratory burst was triggered by addition of PMA (200 ng/mL) and dye reduction was monitored (OD 450) for 25 minutes at 37° C.
Respiratory burst activity was calculated as the rate of dye reduction over time and was normalised to untreated cell controls. Anti-inflammatory activity is reported in Table 2 as the concentration required to reduce superoxide production to 50% of control, Al50.

[1] = system: neutrophils in the peritoneal wash; assay: Mouse gout model (monosodium urate crystal-induced murine peritonitis); type: in vivo; settings: Neutrophil, oral, immediately prior to MSU crystals i.p.
Procedure: Mouse Peritionitis was induced by intraperitoneal injection of 1 to 5 mg monosodium urate (MSU) crystals, in […] PBS (0.1M, pH 7.4). Animals were treated with the compound(s) (in 250 μL PBS orally) at the doses indicated immediately prior to administration of the MSU crystals. 4 hours post administration, animals were euthanased by CO2 exposure. The peritoneal cavity was washed with 3 mL of PBS containing 3 mM EDTA and 25 U/mL of heparin. The total cells in the lavage fluid were counted and an appropriate volume retained for H and E staining for differential counting (Getting et al. Molecular Determinants of Monosodium Urate Crystal—induced Murine Peritonitis: A role for Endogenous Mast Cells and a Distinct Requirement for Endothelial-derived Selectins. J. Pharmacology and Experimental Therapeutics 1997, 283: 123-30).
Treatment groups were as follows:
Untreated Control (Naive)
PBS Control (PBS oral+MSU crystals)
Compound(s),(oral)+MSU crystals

rat glioma cells = settings: in vitro; cited from earlier work
[2] = system: lymphocytic leukemia cells; settings: in vitro; cited from earlier work
[3] = superoxide activity of neutrophils in peritoneal wash 4 hours post, read-out: % suppression Superoxide production
[4] = peritoneal wash 4 hours post, total neutrophils per mL, read-out: % suppression Neutrophil infiltration

Compound	IC50 (human neutrophils)	inhibition in vivo at 25.6 µmol/kg [1, 3]	cytotoxic to rat glioma cells (rat glioma cells)	inhibition in vivo at 25.6 µmol/kg [1, 4]	cytotoxic to lymphocytic leukemia cells [2]
O=C(O)c1ccc2c(n1)C(=O)C1=C(C2=O)S(=O)(=O)CCN1 [Compound 1, 2H-Pyrido[2,3-g][1,4]benzothiazine-5,10-dione, 3,4-dihydr-1,1-dioxo-7-carboxylic acid]	0.14 µM	–	–	–	–
COC(=O)c1ccc2c(n1)C(=O)C1=C(C2=O)S(=O)(=O)CCN1 [Compound 3, Methyl-2H-pyrido[2,3-g][1,4]benzothiazine-5,10-dione, 3,4-dihydro-1,1-dioxo-7-carboxylate]	1.12 µM	80%	–	–	–
CC(C)=CCCc1ccc2c(c1)C(=O)C1=C(NCCS1(=O)=O)C2=O [(A)]	–	–	cytotoxic	–	–
O=Cc1ccc2c(n1)C(=O)C1=C(C2=O)S(=O)(=O)CCN1 [Compound 18, 2H-Pyrido[2,3-g][1,4]benzothiazine-5,10-dione, 3,4-dihydro1,1-dioxo-7-carbaldehyde]	4.17 µM	40%	–	–	–
N#Cc1ccc2c(O)c3c(c(O)c2n1)NCCS3(=O)=O [Compound 6, 2H-Pyrido[2,3-g][1,4]benzothiazine-5,10-dihydroxy, 3,4-dihydro-1,1-dioxo-7-carbonitrile]	4.85 µM	–	–	–	–
N#Cc1ccc2c(n1)C(=O)C1=C(C2=O)S(=O)(=O)CCN1 [Compound 5, 2H-Pyrido[2,3-g][1,4]benzothiazine-5,10-dione, 3,4-dihydro-1,1-dioxo-7-carbonitrile]	1.57 µM	50%	–	25%	–
O=C(O)c1ccc2c(n1)C(=O)C1=C(NC=CS1(=O)=O)C2=O [Compound 2]	0.07 µM	–	–	–	–
Cc1ccc2c(n1)C(=O)C1=C(NCCS1(=O)=O)C2=O [Compound 10, 1H-Pyrido[3,2-g][1,4]benzothiazine-5,10-dione, 2,3-dihydro-7-methyl-1,1-dioxide]	> 90 µM	40%	–	30%	–
CN(C)C(=O)c1ccc2c(n1)C(=O)C1=C(NCCS1(=O)=O)C2=O [Compound 13, 1H-Pyrido[3,2-g][1,4]benzothiazine-5,10-dione, 2,3-dihydro-N,N-dimethyl-1,1-dioxo-7-carboxamide]	149 µM	–	–	–	–
COC(O)c1ccc2c(n1)C(=O)C1=C(C2=O)S(=O)(=O)CCN1 (stereo not drawn) [Compound 19]	13 µM	–	–	–	–
CC(C)=CCCc1ccc2c(c1)C(=O)C1=C(C2=O)S(=O)(=O)CCN1 [(B)]	–	–	cytotoxic	–	–
Cc1ccc2c(n1)C(=O)C1=C(C2=O)S(=O)(=O)CCN1 [Compound 9, 2H-Pyrido[2,3-g][1,4]benzothiazine-5,10-dione, 3,4-dihydro-7-methyl-1,1-dioxide]	> 90 µM	80%	–	50%	–
O=C1C2=C(C(=O)c3ccccc31)S(=O)(=O)CCN2 [Compound 22, 2H-Naphtho[2,3-b]-1,4-thiazine-5,10-dione, 3,4-dihydro-1,1-dioxide]	> 106 µM	80%	–	25%	cytotoxic
O=C1C2=C(NCCS2(=O)=O)C(=O)c2nc(C3OCCO3)ccc21 [Compound 17]	> 74 µM	–	–	–	–
O=C(O)c1ccc2c(n1)C(=O)C1=C(C2=O)S(=O)(=O)C=CN1 [Compound 20, 4H-Pyrido[2,3-g][1,4]benzothiazine-5,10-dione-1,1-dioxo-7-carboxylic acid]	0.09 µM	–	–	–	–
O=C(/C=C/c1ccc2c(n1)C(=O)C1=C(C2=O)S(=O)(=O)CCN1)c1ccccc1 [Compound 16, (E)-1-phenyl-3-(2H-Pyrido[2,3-g][1,4]benzothiazine-5,10-dione, 3,4-dihydro-1,1-dioxide)prop-2-en-1-one.]	7.76 µM	65%	–	30%	–
O=C1C2=C(NCCS2(=O)=O)C(=O)c2ncccc21 [Compound 11, 2H-Pyrido[2,3-g][1,4]benzothiazine-5,10-dione, 3,4-dihydro-1,1-dioxide]	30 µM	20%	–	30%	–
CN(C)C(=O)c1ccc2c(n1)C(=O)C1=C(C2=O)S(=O)(=O)CCN1 [Compound 12, 2H-Pyrido[2,3-g][1,4]benzothiazine-5,10-dione, 3,4-dihydro-N,N-dimethyl-1,1-dioxo-7-carboxamide]	79 µM	85%	–	65%	–
Cc1ccc2c(n1)C(=O)C1=C(C2=O)S(=O)(=O)C=CN1 [Compound 21, 4H-Pyrido[2,3-g][1,4]benzothiazine-5,10-dione-7-methyl-1,1-dioxide]	8.93 µM	40%	–	30%	–
CCCCCCCCOC(=O)c1ccc2c(n1)C(=O)C1=C(C2=O)S(=O)(=O)CCN1 [Compound 4, Octyl-2H-pyrido[2,3-g][1,4]benzothiazine-5,10-dione, 3,4-dihydro-1,1-dioxo-7-carboxylate]	9.04 µM	–	–	–	–
